In patent publication US11603377B2, “MTORC1 modulators and uses thereof” (Aeovian Pharmaceuticals, Inc., priority 2020, dated 2023):

Experiments:
[1] = target: FKBP51 / FRB ternary complex (Homo sapiens (Human), UniProt P42345+Q13451); assay: SPR assay to characterize ternary complex formation with FKBP51 (FRB binding to rapalog-saturated FKBP51); conditions: FRB dilutions with 100 nM rapalog on immobilized FKBP51
Outline: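 SPR with biotinylated avi-FKBP51 on streptavidin chip (~200 RU); FRB (0.00011-20 μM, 3-fold series) injected with 100 nM rapalog, A-B-A mode keeping FKBP saturated with rapalog.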

FKBP51 = FKBP51 (Homo sapiens (Human), UniProt Q13451); assay: SPR assay to determine binding affinity to FKBP51 (direct binding); conditions: immobilized biotinylated avi-FKBP51
Outline: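 Biotinylated avi-FKBP51 captured on streptavidin chip to about 2000 RU. Compounds injected at 0.5-1000 nM (8 points, 3-fold) for 120 s contact and 3600 s dissociation in 50 mM HEPES pH 7.5, 150 mM NaCl, 2 mM MgCl2, 1 mM DTT, 0.05% Tween-20, 1% DMSO.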

FKBP12 = FKBP12 (Homo sapiens (Human), UniProt P62942); assay: SPR assay to determine binding affinity to FKBP12 (direct binding); conditions: immobilized biotinylated avi-FKBP12
mTORC2 = mTORC2 (Homo sapiens (Human), UniProt P42345+P62942); assay: mTORC2 inhibition, AlphaLISA of Phospho-AKT (pAKT pS473) in PC3 cells; type: cell-based
mTORC1 = mTORC1 (Homo sapiens (Human), UniProt P42345+P62942); assay: mTORC1 inhibition, AlphaLISA of Phospho-p70 S6 kinase (p70S6K pT389) in PC-3 cells; type: cell-based; conditions: inhibition of p70S6K pT389 levels
[2] = target: FKBP12 / FRB ternary complex (Homo sapiens (Human), UniProt P42345+P62942); assay: SPR assay to characterize ternary complex formation with FKBP12 (FRB binding to rapalog-saturated FKBP12); conditions: FRB dilutions with 100 nM rapalog on immobilized FKBP12
Outline: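 Biotinylated avi-FKBP12 immobilized (~100 RU) on streptavidin chip; A-B-A injections kept FKBP12 saturated with 100 nM rapalog while FRB (0.00011–20 μM, 3-fold, 12 points) was injected 120 s.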

FKBP51, sequence (Q13451 whole entry): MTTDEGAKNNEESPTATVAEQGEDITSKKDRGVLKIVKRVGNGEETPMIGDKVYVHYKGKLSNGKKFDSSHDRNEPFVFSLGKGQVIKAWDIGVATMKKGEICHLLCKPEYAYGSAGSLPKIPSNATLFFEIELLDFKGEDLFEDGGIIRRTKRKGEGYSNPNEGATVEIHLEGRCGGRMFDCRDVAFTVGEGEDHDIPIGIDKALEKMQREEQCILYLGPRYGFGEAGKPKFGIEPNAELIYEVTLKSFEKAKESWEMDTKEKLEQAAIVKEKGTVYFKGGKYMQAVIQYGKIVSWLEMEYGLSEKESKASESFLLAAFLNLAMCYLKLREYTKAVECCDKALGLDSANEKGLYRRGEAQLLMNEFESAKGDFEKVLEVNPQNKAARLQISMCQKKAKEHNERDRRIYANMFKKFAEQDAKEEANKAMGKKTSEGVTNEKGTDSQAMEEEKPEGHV
FKBP12, sequence (P62942 whole entry): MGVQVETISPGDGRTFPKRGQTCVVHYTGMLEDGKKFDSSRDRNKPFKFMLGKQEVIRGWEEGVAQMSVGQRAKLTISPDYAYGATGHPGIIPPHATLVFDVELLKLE

Compound	Kd [1] [nM]	Kd (FKBP51) [nM]	Kd (FKBP12) [nM]	mTORC2 % inhibition at 1 uM (mTORC2)	IC50 (mTORC1) [nM]	Kd [2] [nM]
COC1CC(CC(C)C2CC(=O)C(C)C=C(C)C(O)C(OC)C(=O)C(C)CC(C)C=CC=CC=C(C)C(OC3CCOC3)CC3CCC(C)C(O)(O3)C(=O)C(=O)N3CCCCC3C(=O)O2)CCC1O (stereo not drawn) [Compound 35]	> 800	< 10	< 0.3	A (A ≤20% inhibition at 1 micro Molar (uM))	> 0.8	> 800
COC1CC(CC(C)C2CC(=O)C(C)C=C(C)C(O)C(OC)C(=O)C(C)CC(C)C=CC=CC=C(C)C(OCC3CC3)CC3CCC(C)C(O)(O3)C(=O)C(=O)N3CCCCC3C(=O)O2)CCC1O (stereo not drawn) [Compound 39]	> 800	> 100	0.3 to 1	B (B>20% and less than 40% inhibition at 1 uM)	0.1 to 0.8	300 to 800
CO[C@@H]1C[C@H](C[C@@H](C)[C@@H]2CC(=O)[C@H](C)/C=C(\C)[C@@H](O)[C@@H](OC)C(=O)[C@H](C)C[C@H](C)/C=C/C=C/C=C(\C)[C@@H](OCCCO)C[C@@H]3CC[C@@H](C)[C@@](O)(O3)C(=O)C(=O)N3CCCC[C@H]3C(=O)O2)CC[C@H]1OCCCS(C)(=O)=O [Compound 68]	> 800	10 to 100	< 0.3	C (C≥40% and less than 60% inhibition at 1 uM)	< 0.1	< 300
COC1C(=O)C(C)CC/C=C/C=C/C=C(\C)C(CCO)C[C@H]2CC[C@H](C)[C@](O)(O2)C(=O)C(=O)N(C)C(C)C(=O)OC([C@H](C)C[C@@H]2CC[C@@H](OCCCS(C)(=O)=O)[C@H](OC)C2)CC(=O)C(C)/C=C(\C)C1O (stereo partly drawn) [Compound 67]	> 800	10 to 100	< 0.3	B (B>20% and less than 40% inhibition at 1 uM)	0.1 to 0.8	300 to 800
CO[C@@H]1C[C@H](C[C@@H](C)[C@@H]2CC(=O)[C@H](C)/C=C(\C)[C@@H](O)[C@@H](OC)C(=O)[C@H](C)C[C@H](C)/C=C/C=C/C=C(\C)[C@@H](NS(=O)(=O)CC3CCOCC3)C[C@@H]3CC[C@@H](C)[C@@](O)(O3)C(=O)C(=O)N3CCCC[C@H]3C(=O)O2)CC[C@H]1O [Compound 6]	> 800	< 10	< 0.3	A (A ≤20% inhibition at 1 micro Molar (uM))	0.1 to 0.8	> 800
COCCS(=O)(=O)NC1CC2CCC(C)C(O)(O2)C(=O)C(=O)N2CCCCC2C(=O)OC(C(C)CC2CCC(OCCO)C(OC)C2)CC(=O)C(C)C=C(C)C(O)C(OC)C(=O)C(C)CC(C)C=CC=CC=C1C (mixture of isomers) [Compound 16]	> 800	10 to 100	< 0.3	B (B>20% and less than 40% inhibition at 1 uM)	0.1 to 0.8	300 to 800
CO[C@@H]1C[C@H](C[C@@H](C)[C@@H]2CC(=O)[C@H](C)/C=C(\C)[C@@H](O)[C@@H](OC)C(=O)[C@H](C)C[C@H](C)/C=C/C=C/C=C(\C)[C@@H](OCCC3CCOC3)C[C@@H]3CC[C@@H](C)[C@@](O)(O3)C(=O)C(=O)N3CCCC[C@H]3C(=O)O2)CC[C@H]1O (stereo partly drawn) [Compound 32]	> 800	10 to 100	< 0.3	A (A ≤20% inhibition at 1 micro Molar (uM))	0.1 to 0.8	300 to 800
CO[C@@H]1C[C@H](C[C@@H](C)[C@@H]2CC(=O)[C@H](C)/C=C(\C)[C@@H](O)[C@@H](OC)C(=O)[C@H](C)C[C@H](C)/C=C/C=C/C=C(\C)[C@@H](OCCC3CCO3)C[C@@H]3CC[C@@H](C)[C@@](O)(O3)C(=O)C(=O)N3CCCC[C@H]3C(=O)O2)CC[C@H]1O (stereo partly drawn) [Compound 28]	> 800	10 to 100	< 0.3	B (B>20% and less than 40% inhibition at 1 uM)	0.1 to 0.8	> 800
COC1CC(CC(C)C2CC(=O)C(C)C=C(C)C(O)C(OC)C(=O)C(C)CC(C)C=CC=CC=C(C)C(OCC3CC3)CC3CCC(C)C(O)(O3)C(=O)C(=O)N3CCCCC3C(=O)O2)CCC1OCCCO (stereo not drawn) [Compound 43]	< 300	> 100	> 1	C (C≥40% and less than 60% inhibition at 1 uM)	> 0.8	< 300
COCCOCCS(=O)(=O)NC1CC2CCC(C)C(O)(O2)C(=O)C(=O)N2CCCCC2C(=O)OC(C(C)CC2CCC(OCCO)C(OC)C2)CC(=O)C(C)C=C(C)C(O)C(OC)C(=O)C(C)CC(C)C=CC=CC=C1C (mixture of isomers) [Compound 7]	300 to 800	10 to 100	< 0.3	B (B>20% and less than 40% inhibition at 1 uM)	0.1 to 0.8	< 300
CO[C@@H]1C[C@H](C[C@@H](C)[C@@H]2CC(=O)[C@H](C)/C=C(\C)[C@@H](O)[C@@H](OC)C(=O)[C@H](C)C[C@H](C)/C=C/C=C/C=C(\C)[C@@H](OC3CCS(=O)(=O)C3)C[C@@H]3CC[C@@H](C)[C@@](O)(O3)C(=O)C(=O)N3CCCC[C@H]3C(=O)O2)CC[C@H]1O (stereo partly drawn) [Compound 26]	> 800	> 100	< 0.3	A (A ≤20% inhibition at 1 micro Molar (uM))	> 0.8	> 800
CO[C@@H]1C[C@H](C[C@@H](C)[C@@H]2CC(=O)[C@H](C)/C=C(\C)[C@@H](O)[C@@H](OC)C(=O)[C@H](C)C[C@H](C)/C=C/C=C/C=C(\C)[C@@H](OC3CC3)C[C@@H]3CC[C@@H](C)[C@@](O)(O3)C(=O)C(=O)N3CCCC[C@H]3C(=O)O2)CC[C@H]1OCCCS(C)(=O)=O [Compound 64]	< 300	> 100	0.3 to 1	C (C≥40% and less than 60% inhibition at 1 uM)	0.1 to 0.8	< 300
COC1CC(CC(C)C2CC(=O)C(C)C=C(C)C(O)C(OC)C(=O)C(C)CC(C)C=CC=CC=C(C)C(OCC3CCC3)CC3CCC(C)C(O)(O3)C(=O)C(=O)N3CCCCC3C(=O)O2)CCC1OCCO (stereo not drawn) [Compound 45]	< 300	> 100	> 1	B (B>20% and less than 40% inhibition at 1 uM)	> 0.8	< 300
CO[C@@H]1C[C@H](C[C@@H](C)[C@@H]2CC(=O)[C@H](C)/C=C(\C)[C@@H](O)[C@@H](OC)C(=O)[C@H](C)C[C@H](C)/C=C/C=C/C=C(\C)[C@@H](OCC3CC3)C[C@@H]3CC[C@@H](C)[C@@](O)(O3)C(=O)C(=O)N3CCCC[C@H]3C(=O)O2)CC[C@H]1OCCCS(C)(=O)=O [Compound 60]	> 800	> 100	> 1	B (B>20% and less than 40% inhibition at 1 uM)	0.1 to 0.8	< 300
CO[C@@H]1C[C@H](C[C@@H](C)[C@@H]2CC(=O)[C@H](C)/C=C(\C)[C@@H](O)[C@@H](OC)C(=O)[C@H](C)C[C@H](C)/C=C/C=C/C=C(\C)[C@@H](NS(=O)(=O)CC3CCCC3)C[C@@H]3CC[C@@H](C)[C@@](O)(O3)C(=O)C(=O)N3CCCC[C@H]3C(=O)O2)CC[C@H]1O [Compound 23]	> 800	10 to 100	< 0.3	A (A ≤20% inhibition at 1 micro Molar (uM))	> 0.8	> 800
CO[C@@H]1C[C@H](C[C@@H](C)[C@@H]2CC(=O)[C@H](C)/C=C(\C)[C@@H](O)[C@@H](OC)C(=O)[C@H](C)C[C@H](C)/C=C/C=C/C=C(\C)[C@H](NS(=O)(=O)CC3CCOCC3)C[C@@H]3CC[C@@H](C)[C@@](O)(O3)C(=O)C(=O)N3CCCC[C@H]3C(=O)O2)CC[C@H]1O [Compound 5]	> 800	10 to 100	< 0.3	A (A ≤20% inhibition at 1 micro Molar (uM))	0.1 to 0.8	> 800
